Experiments:
human TTK = target: T1, human TTK (Homo sapiens, UniProt P33981); assay: TTK inhibition assay (indirect ELISA); format: biochemical; conditions: Table 1; 16 μM ATP (asterisk); read-out: TTK IC50 Range
T1 construct: Active TTK was purchased from Invitrogen as an amino terminal GST fusion of full length human TTK; purchased Invitrogen
T1 sequence (P33981 1-857): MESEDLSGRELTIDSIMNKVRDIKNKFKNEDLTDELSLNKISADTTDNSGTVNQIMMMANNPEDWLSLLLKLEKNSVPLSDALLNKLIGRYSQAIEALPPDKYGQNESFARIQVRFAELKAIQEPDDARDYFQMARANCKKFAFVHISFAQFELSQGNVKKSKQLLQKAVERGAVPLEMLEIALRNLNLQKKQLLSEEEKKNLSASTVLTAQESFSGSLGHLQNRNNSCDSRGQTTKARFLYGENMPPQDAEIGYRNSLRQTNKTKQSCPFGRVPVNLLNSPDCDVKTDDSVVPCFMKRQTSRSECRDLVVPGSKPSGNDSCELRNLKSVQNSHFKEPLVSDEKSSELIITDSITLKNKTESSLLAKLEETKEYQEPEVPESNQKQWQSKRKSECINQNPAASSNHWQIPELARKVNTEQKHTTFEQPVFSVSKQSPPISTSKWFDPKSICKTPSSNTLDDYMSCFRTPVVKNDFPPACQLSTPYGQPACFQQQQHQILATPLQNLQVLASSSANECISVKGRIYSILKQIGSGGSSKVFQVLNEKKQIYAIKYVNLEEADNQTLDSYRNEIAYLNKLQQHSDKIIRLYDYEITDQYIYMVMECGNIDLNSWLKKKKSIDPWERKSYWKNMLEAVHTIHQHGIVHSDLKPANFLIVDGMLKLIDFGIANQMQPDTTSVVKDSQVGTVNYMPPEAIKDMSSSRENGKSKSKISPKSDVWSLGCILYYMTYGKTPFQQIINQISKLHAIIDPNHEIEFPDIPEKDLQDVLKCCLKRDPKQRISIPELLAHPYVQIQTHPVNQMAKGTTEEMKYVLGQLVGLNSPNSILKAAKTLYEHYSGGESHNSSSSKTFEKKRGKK
Outline: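 Activity detected by indirect ELISA after compounds sat with full-length GST-TTK for 5 min prior to starting the reaction with ATP. IC50 came from a four-parameter logistic curve of % inhibition, calculated against background and uninhibited control wells.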

[1] = system: colon cancer cells (HCT116); assay: Cancer cell line growth inhibition, Sulforhodamine B assay, HCT116; format: cell-based; conditions: Homo sapiens, HCT-116, 120 h, Table 1; HCT116, 5 days, SRB; read-out: Cancer Cell Line GI50 Range HCT116
Outline: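 GI50 is calculated from growth inhibition relative to DMSO controls, using TCA-fixed, SRB-stained protein mass read at 570 nm. Compound, 10 nM–50 μM final in 10% FBS DMEM, was applied for 5 days to HCT116 cells that had been plated 24 h before at 1000–4000/well.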

[2] = system: breast cancer cells (MDA-MB-468); assay: Cancer cell line growth inhibition, Sulforhodamine B assay, MDA-MB-468; format: cell-based; conditions: Homo sapiens, MDA-MB-468, 120 h, Table 1; MDA-MB-468, 5 days, SRB; read-out: Cancer Cell Line GI50 Range MDA-MB-468
Outline: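 Sulforhodamine B staining (TCA-fixed, read at 570 nm) estimates cell mass after 5-day compound treatment of MDA-MB-468 cells, final concentrations 10 nM to 50 μM in 10% FBS DMEM. GI50 derived from growth inhibition versus DMSO controls.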

[3] = system: ovarian cancer cells (PA-1); assay: Cancer cell line growth inhibition, Sulforhodamine B assay, PA-1; format: cell-based; conditions: 120 h; Table 1; PA-1, 5 days, SRB; read-out: Cancer Cell Line GI50 Range PA-1
Protocol: Breast cancer cells (MDA-MB-231 and MDA-MB-468), colon cancer cells (HCT116) and ovarian cancer cells (PA-1 and OVCAR-3) were seeded (1000 to 4000 in 80 μl per well depending on the cell growth rate) into 96 well plates 24 hours before compound overlay. Compounds were prepared as 10 mM stock solutions in 100% DMSO which were diluted with DMEM (Dulbecco's Modified Eagle's Medium) cell growth Medium (Invitrogen, Burlington, ON, Canada) containing 10% FBS (Fetal Bovine Serum) to concentrations ranging from 50 nM to 250 μM. Aliquots (20 μl) from each concentration were overlaid to 80 μl of the pre-seeded cells in the 96 well plates to make final concentrations of 10 nM to 50 μM. The cells were cultured for 5 days before the Sulforhodamine B assay (SRB) was performed to determine the compound's cell growth inhibition activity.
Sulforhodamine B (purchased from Sigma, Oakville, ON, Canada) is a water-soluble dye that binds to the basic amino acids of the cellular proteins. Thus, colorimetric measurement of the bound dye provides an estimate of the total protein mass that is related to the cell number. the cells are fixed in situ by gently aspirating off the culture media and adding 50 μl ice cold 10% Trichloroacetic Acid (TCA) per well and incubate at 4° C. for 30-60 min, The plates are washed with H2O five times and allowed to air dry for 5 min. Addition of 50 μl 0.4% (w/v) SRB solution in 1% (v/v) acetic acid to each well and incubation for 30 min at RT completes the staining reaction. Following staining, plates are washed four times with 1% acetic acid to remove unbound dye and then allowed to air dry for 5 min. The stain is solubilized with 100 μl of 10 mM Tris pH 10.5 per well. Absorbance is read at 570 nm.
The percentage (%) of relative growth inhibition was calculated by comparing to DMSO treated only cells (100%). GI50's were determined for compounds with cytotoxic activity. The GI50 was calculated using GraphPad PRISM software (GraphPad Software, Inc., San Diego, Calif., USA).
In Table 1 below, GI50 value ranges for compound examples against breast cancer cell lines (MDA-MB-468), colon cancer cell lines (HCT116) and ovarian cancer cell lines (PA-1) are given.
In Table 2 below, GI50 value ranges for compound examples against breast cancer cell lines (MDA-MB-231), colon cancer cell lines (HCT116) and ovarian cancer cell lines (PA-1) are given.

[4] = system: Ovarian 2393A tumor initiating cells; assay: Tumor-initiating cell growth inhibition, Alamar Blue assay, ovarian TICs; format: cell-based; conditions: 144 h; Table 1; ovarian TICs, 6 days, Alamar Blue; read-out: Tumor Initiating Cell GI50 Range Ovarian 2393A
Source text: (§1) Non-tissue or tissue cultured treated T-75 flask and 96-well plates were purchased from VWR. Vitamin B-27 supplement, MEM NEAA (minimum essential medium non essential amino acids), sodium pyruvate, L-glutamine, N2 supplement, penicillin-streptomycin and fungizone/amphotericin B were obtained from Invitrogen. Lipid mixture, heparin and EGF were purchased from Sigma; bFGF from BD Biosciences. Tumor Initiating Cells (TICs) from colon were routinely maintained using non-tissue cultured treated T-75 flasks in DMEM:F12 medium containing 0.2XB-27 supplement, 4 ug/ml heparin, 1×MEM NEAA, 1×sodium pyruvate, 1 mM glutamine, 10 pg/ul bFGF, 20 pg/ul EGF, 1× N2 supplement, lipid mixture, penicillin-streptomycin and fungizone/amphotericin B. Ovarian TICs were routinely maintained using tissue cultured treated T-75 flasks in DMEM:F12 medium containing IXB-27 supplement, 4 ug/ml heparin, 20 pg/ul bFGF, 20 pg/ul EGF and penicillin-streptomycin.
(§2) Compounds described herein were dissolved in DMSO and further diluted in cell culture medium for GI50 determination. Colon TICs were trypsinized and seeded into non-tissue cultured treated 96-well plates with 4,000 cells/well. After 24 h, compound was added into the cell culture at different concentrations, and the final concentration of DMSO was adjusted to 0.1%. Cells were then cultured at 37° C. for 9 days. Ovarian TICs were trypsinized and seeded into tissue cultured treated 96-well plates with 1,000 cells/well. After 24 h, compound was added into the cell culture at different concentrations, and the final concentration of DMSO was adjusted to 0.1%. Cells were then cultured at 37° C. for 6 days. Cell viability was assessed by Alamar Blue assay: 10 ul of Alamar Blue was added into each well. After 4 hours incubation at 37° C., fluorescence was recorded at excitation 544 and emission 590. GI50 (Growth inhibition) was calculated using GraphPad Prism 4.0 software.
(§3) In Table 1 below, GI50 value ranges for compound examples against TICs (Colon 12 and Ovarian 2393A) are given.

[5] = system: Colon 12 tumor initiating cells; assay: Tumor-initiating cell growth inhibition, Alamar Blue assay, colon TICs; format: cell-based; conditions: 216 h; Table 1; colon TICs, 9 days, Alamar Blue; read-out: Tumor Initiating Cell GI50 Range Colon 12
Source text: as §1, §2, §3

Structure (SMILES) | IC50 (human TTK) [nM] | GI50 [1] [nM] | GI50 [2] [nM] | GI50 [3] [nM] | GI50 [4] [nM] | GI50 [5] [nM]
O=C(NC1CC1)c1ccc(-c2cnn3c(NCCN4CCOCC4)nc(Oc4ccccc4)nc23)cc1 [Example A7, N-cyclopropyl-4-(4-((2-morpholinoethyl)amino)-2-phenoxypyrazolo[1,5-a][1,3,5]triazin-8-yl)benzamide] | < 100 | > 500 | > 500 | 100 to 500 | > 500 | > 500
O=C(NC1CC1)c1ccc(-c2cnn3c(NCCN4CCOCC4)nc(Oc4cccnc4)nc23)cc1 [Example A8, N-cyclopropyl-4-(4-((2-morpholinoethyl)amino)-2-(pyridin-3-yloxy)pyrazolo[1,5-a][1,3,5]triazin-8-yl)benzamide] | > 500 | > 500 | > 500 | > 500 | – | –
O=C(NC1CC1)c1ccc(-c2cnn3c(NCC4CCOCC4)nc(Oc4ccccc4)nc23)cc1 [Example A10, N-cyclopropyl-4-(2-phenoxy-4-(((tetrahydro-2H-pyran-4-yl)methyl)amino)pyrazolo[1,5-a][1,3,5]triazin-8-yl)benzamide] | < 100 | 100 to 500 | > 500 | 100 to 500 | – | –
O=C(NC1CC1)c1ccc(-c2cnn3c(NCC4CCOCC4)nc(OC4CCCC4)nc23)cc1 [Example A11, 4-(2-(cyclopentyloxy)-4-(((tetrahydro-2H-pyran-4-yl)methyl)amino)pyrazolo[1,5-a][1,3,5]triazin-8-yl)-N-cyclopropylbenzamide] | < 100 | 100 to 500 | > 500 | 100 to 500 | – | –
O=C(NC1CC1)c1ccc(-c2cnn3c(NCC4CCOCC4)nc(Oc4cccnc4)nc23)cc1 [Example A13, N-cyclopropyl-4-(2-(pyridin-3-yloxy)-4-(((tetrahydro-2H-pyran-4-yl)methyl)amino)-pyrazolo[1,5-a][1,3,5]triazin-8-yl)benzamide] | < 100 | > 500 | > 500 | 100 to 500 | – | –

Results, then the compound that gave them:

IC50 (human TTK) [nM] | GI50 [1] [nM] | GI50 [2] [nM] | GI50 [3] [nM] | GI50 [4] [nM] | GI50 [5] [nM] | Structure (SMILES)
< 100 | 100 to 500 | 100 to 500 | ≤ 100 | 100 to 500 | ≤ 100 | Cc1cc(-c2cnn3c(NCC4CCOCC4)nc(NC4CCCC4)nc23)ccc1C(=O)NC1CC1 [Example A2, 4-(2-(Cyclopentylamino)-4-(((tetrahydro-2H-pyran-4-yl)methyl)amino)pyrazolo[1,5-a][1,3,5]triazin-8-yl)-N-cyclopropyl-2-methylbenzamide]
< 100 | ≤ 100 | ≤ 100 | ≤ 100 | 100 to 500 | ≤ 100 | Cc1cc(-c2cnn3c(NCC4CCOCC4)nc(Oc4ccccc4)nc23)ccc1C(=O)NC1CC1 [Example A3, N-cyclopropyl-2-methyl-4-(2-phenoxy-4-(((tetrahydro-2H-pyran-4-yl)methyl)amino)pyrazolo[1,5-a][1,3,5]triazin-8-yl)benzamide]
< 100 | 100 to 500 | 100 to 500 | 100 to 500 | 100 to 500 | ≤ 100 | O=C(NC1CC1)c1ccc(-c2cnn3c(NCC4CCOCC4)nc(Oc4ccccc4)nc23)cc1Cl [Example A4, 2-Chloro-N-cyclopropyl-4-(2-phenoxy-4-(((tetrahydro-2H-pyran-4-yl)methyl)amino)pyrazolo[1,5-a][1,3,5]triazin-8-yl)benzamide]
< 100 | 100 to 500 | > 500 | 100 to 500 | > 500 | 100 to 500 | O=C(NC1CC1)c1ccc(-c2cnn3c(NCC4CCOCC4)nc(OC4CCCC4)nc23)cc1Cl [Example A5, 2-chloro-4-(2-(cyclopentyloxy)-4-(((tetrahydro-2H-pyran-4-yl)methyl)amino)pyrazolo[1,5-a][1,3,5]triazin-8-yl)-N-cyclopropylbenzamide]
< 100 | 100 to 500 | > 500 | ≤ 100 | 100 to 500 | 100 to 500 | O=C(NC1CC1)c1ccc(-c2cnn3c(NCC4CCOCC4)nc(N4CCOCC4)nc23)cc1Cl [Example A6, 2-chloro-N-cyclopropyl-4-(2-morpholino-4-(((tetrahydro-2H-pyran-4-yl)methyl)amino)pyrazolo[1,5-a][1,3,5]triazin-8-yl)benzamide]
